Measured values from patent US9421177B2, “Imidamide sphingosine kinase inhibitors” (University of Virginia Patent Foundation, priority 2009, dated 2016).
pKi: −log10 of the molar value.

What was measured:
[1] = Pro-drug activity: conversion of amidoxime to amidine in mice; type: in vivo; conditions: 20 mpk, IP or oral, FIG. 7B
Procedure: Mice were dosed with 20 mpk of amidoxime, VPC96143, both IP and orally. S1P in plasma and organs was measured at times ASAP, 2 hrs and 24 hrs. The compound amidine, VPC96077, was also measured in plasma and organs at times ASAP, 2 hrs and 24 hrs.
Mice Numbering • 51: dosed with 20 mpk amidoxime VPC96143 administered IP. Plasma extracted ASAP and 2 hrs. Organs harvested at 2 hrs. • 52: dosed with 20 mpk amidoxime VPC96143 administered IP. Plasma extracted ASAP and 24 hrs. Organs harvested at 2 hrs. • 53: dosed with 20 mpk amidoxime VPC96143 administered orally. Plasma extracted ASAP and 2 hrs. Organs harvested at 2 hrs.

human SphK1 = human SphK1 (Homo sapiens (Human), UniProt Q9NYA1); test: Determination of Ki values, recombinant human SphK1 in Sf9 cell homogenates; type: biochemical; conditions: amidine HCl salt; recombinant human SphK1, Sf9 homogenate, 37 C, 20 minutes; read-out: SphK1 inhibitory constant (Ki)
Chain of human SphK1 (Q9NYA1 whole entry): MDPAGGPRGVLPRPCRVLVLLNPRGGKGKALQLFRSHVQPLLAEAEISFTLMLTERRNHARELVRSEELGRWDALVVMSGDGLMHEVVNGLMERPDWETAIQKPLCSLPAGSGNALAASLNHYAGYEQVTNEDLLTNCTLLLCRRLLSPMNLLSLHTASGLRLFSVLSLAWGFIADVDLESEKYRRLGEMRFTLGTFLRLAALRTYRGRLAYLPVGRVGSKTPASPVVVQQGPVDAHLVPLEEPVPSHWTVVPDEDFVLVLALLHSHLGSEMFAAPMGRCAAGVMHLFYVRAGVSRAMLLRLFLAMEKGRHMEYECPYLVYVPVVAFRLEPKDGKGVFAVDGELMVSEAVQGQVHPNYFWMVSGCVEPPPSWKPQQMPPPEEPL
Procedure: (§1) Sphingosine kinase activity was assessed as described previously (Kharel, Y., Lee, S., Snyder, A. H., Sheasley-O'Neill, S. L., Morris, M. A., Setiady, Y., Zhu, R., Zigler, M. A., Burcin, T. L., Ley, K., Tung, K. S. K., Engelhard, V. H., Macdonald, T. L. and Lynch, K. R. Sphingosine kinase 2 is required for modulation of lymphocyte traffic by FTY720. J Biological Chemistry 280: 36865-36872 (2005)). High levels of human sphingosine kinase type 1 (mSK1) and mouse sphingosine kinase type 2 (mSK2) were expressed in Sf9 insect cells by infection with cognate baculoviruses. Crude homogenates were incubated with γ-[^32P]ATP and 10 micromolar D-erythro-sphingosine in the presence of 100 micromolar concentrations of test compounds for 20 minutes at 37 C. The product, radiolabeled S1P, was isolated by extraction into organic solvents after acidification and […] by thin layer chromatography. […]
(§2) Crude homogenates of Sf9 cells containing high levels of recombinant mouse SphK2 or human SphK1 were incubated with γ-[^32P]ATP and various concentrations (0 to 500 micromolar) of D-erythro-sphingosine for 20 minutes […] at 37 C in the presence of fixed concentration of test compound. The product, radiolabeled S1P, was isolated by extraction into organic solvents followed by thin layer chromatography, recovered and radioactivity measured by liquid scintillation counting. […]

mouse SphK2 = mouse SphK2 (Mus musculus (Mouse), UniProt Q9JIA7); test: Determination of Ki values, recombinant mouse SphK2 in Sf9 cell homogenates; type: biochemical; conditions: amidine HCl salt; recombinant mouse SphK2, Sf9 homogenate, 37 C, 20 minutes; read-out: SphK2 inhibitory constant (Ki)
Chain of mouse SphK2 (Q9JIA7 whole entry): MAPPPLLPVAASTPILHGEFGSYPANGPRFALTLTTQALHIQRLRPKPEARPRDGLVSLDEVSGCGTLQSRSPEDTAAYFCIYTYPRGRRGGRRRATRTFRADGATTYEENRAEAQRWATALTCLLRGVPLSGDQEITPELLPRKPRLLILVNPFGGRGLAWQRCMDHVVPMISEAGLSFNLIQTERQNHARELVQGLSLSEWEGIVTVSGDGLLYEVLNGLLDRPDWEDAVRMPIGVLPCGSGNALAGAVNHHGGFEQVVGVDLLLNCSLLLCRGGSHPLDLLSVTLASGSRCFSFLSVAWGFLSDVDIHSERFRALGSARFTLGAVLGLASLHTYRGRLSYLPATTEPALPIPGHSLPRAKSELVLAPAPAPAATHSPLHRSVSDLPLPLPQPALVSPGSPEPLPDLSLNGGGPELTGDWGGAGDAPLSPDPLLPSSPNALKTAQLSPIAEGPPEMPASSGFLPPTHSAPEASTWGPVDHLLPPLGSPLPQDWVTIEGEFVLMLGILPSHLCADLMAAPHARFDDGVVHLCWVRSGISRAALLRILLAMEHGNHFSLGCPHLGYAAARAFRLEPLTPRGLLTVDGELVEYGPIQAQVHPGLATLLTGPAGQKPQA
Procedure: as §1, §2

Row | Structure (SMILES) | conversion of amidoxime pro-drug to amidine congener VPC96077 (accumulation in plasma) [1] | pKi (human SphK1) | pKi (mouse SphK2)
1 | CCCCCCCCCCCc1ccc(C(=O)N2CCC[C@H]2/C(N)=N/O)cc1 [VPC96143] | conversion of the amidoxime to the amidine in vivo | – | –
2 | N/C(=N\O)C1(C(=O)Nc2ccc(CCCCCCCCCc3ccccc3)cc2)CC1 [VPC143129] | – | 6.30 | < 5.00
